Read-outs that look alike come from different tables or passages of the source. Where a SMILES comes first, the peptide text is derived from it. [ ]: non-standard residue; d: D form. The star is where a group is joined. Desaminotyrosyl = O=C(CCc1ccc(O)cc1)*; Cya = N[C@@H](CS(=O)(=O)O)C(=O)O
Experiments:
[1] = proteolytic stability in bovine plasma (HPLC, modified Frohman method); conditions: bovine plasma
[2] = test system: bovine anterior pituitary cell culture; type: cell-based
[3] = another assay, potency as a fraction of bGRF(1-44)NH₂

| Compound | remaining at 1 h [1] | the potency of bGRF(1-44)NH₂ [2] | the potency of bGRF(1-44)NH₂ [2, 3] | potency (in words) ([2]; contemplated, compound not tested) |
| --- | --- | --- | --- | --- |
| CC[C@H](C)[C@H](NC(=O)[C@H](C)NC(=O)[C@H](CS(=O)(=O)O)NC(=O)[C@H](C)NC(=O)CCc1ccc(O)cc1)C(=O)N[C@@H](Cc1ccccc1)C(=O)N[C@H](C(=O)N[C@@H](CC(N)=O)C(=O)N[C@@H](CO)C(=O)N[C@@H](Cc1ccc(O)cc1)C(=O)N[C@@H](CCCNC(=N)N)C(=O)N[C@@H](CCCCN)C(=O)N[C@H](C(=O)N[C@@H](CC(C)C)C(=O)NCC(=O)N[C@@H](CCC(N)=O)C(=O)N[C@@H](CC(C)C)C(=O)N[C@@H](CO)C(=O)N[C@@H](C)C(=O)N[C@@H](CCCNC(=N)N)C(=O)N[C@@H](CCCCN)C(=O)N[C@@H](CC(C)C)C(=O)N[C@@H](CC(C)C)C(=O)N[C@@H](CCC(N)=O)C(=O)N[C@@H](CC(=O)O)C(=O)N[C@H](C(=O)N[C@@H](CC(C)C)C(=O)N[C@@H](CC(N)=O)C(=O)N[C@@H](CCCNC(=N)N)C(=O)N[C@@H](CCC(N)=O)C(=O)N[C@@H](CCC(N)=O)C(=O)NCC(N)=O)[C@@H](C)CC)C(C)C)[C@@H](C)O [Compound 5, Desamino-Tyr¹, Cya³, Leu²⁷-bGRF(1-32)NH₂] (Desaminotyrosyl-A[Cya]AIFTNSYRKVLGQLSARKLLQDILNRQQG-NH2) | 76% | 1.01 | – | – |
| DesaminoTyr¹, Cya³, Ser⁸, Arg¹², Ala¹⁵, Arg²¹, Leu²⁷, Ser²⁸, Hse³³ bGRF(1-33)lactone [Compound 20] | – | – | – | high potency |
| CC[C@H](C)[C@H](NC(=O)[C@H](C)NC(=O)[C@H](CS(=O)(=O)O)NC(=O)[C@@H](C)NC(=O)CCc1ccc(O)cc1)C(=O)N[C@@H](Cc1ccccc1)C(=O)N[C@H](C(=O)N[C@@H](CC(N)=O)C(=O)N[C@@H](CO)C(=O)N[C@@H](Cc1ccc(O)cc1)C(=O)N[C@@H](CCCNC(=N)N)C(=O)N[C@@H](CCCCN)C(=O)N[C@H](C(=O)N[C@@H](CC(C)C)C(=O)N[C@@H](C)C(=O)N[C@@H](CCC(N)=O)C(=O)N[C@@H](CC(C)C)C(=O)N[C@@H](CO)C(=O)N[C@@H](C)C(=O)N[C@@H](CCCNC(=N)N)C(=O)N[C@@H](CCCCN)C(=O)N[C@@H](CC(C)C)C(=O)N[C@@H](CC(C)C)C(=O)N[C@@H](CCC(N)=O)C(=O)N[C@@H](CC(=O)O)C(=O)N[C@H](C(=O)N[C@@H](CC(C)C)C(=O)N[C@@H](CC(N)=O)C(=O)N[C@@H](CCCNC(=N)N)C(=O)N[C@@H](CCC(N)=O)C(=O)N[C@@H](CCC(N)=O)C(=O)NCC(N)=O)[C@@H](C)CC)C(C)C)[C@@H](C)O [Compound 10, Desamino-Tyr¹, D-Ala², Cya³, Ala¹⁵, Leu²⁷-bGRF(1-32)NH₂] (Desaminotyrosyl-[dA][Cya]AIFTNSYRKVLAQLSARKLLQDILNRQQG-NH2) | – | 1.40 | – | – |
| CC[C@H](C)[C@H](NC(=O)[C@H](C)NC(=O)[C@H](CS(=O)(=O)O)NC(=O)[C@H](C)NC(=O)[C@@H](N)Cc1ccc(O)cc1)C(=O)N[C@@H](Cc1ccccc1)C(=O)N[C@H](C(=O)N[C@@H](CC(N)=O)C(=O)N[C@@H](CO)C(=O)N[C@@H](Cc1ccc(O)cc1)C(=O)N[C@@H](CCCNC(=N)N)C(=O)N[C@@H](CCCCN)C(=O)N[C@H](C(=O)N[C@@H](CC(C)C)C(=O)NCC(=O)N[C@@H](CCC(N)=O)C(=O)N[C@@H](CC(C)C)C(=O)N[C@@H](CO)C(=O)N[C@@H](C)C(=O)N[C@@H](CCCNC(=N)N)C(=O)N[C@@H](CCCCN)C(=O)N[C@@H](CC(C)C)C(=O)N[C@@H](CC(C)C)C(=O)N[C@@H](CCC(N)=O)C(=O)N[C@@H](CS(=O)(=O)O)C(=O)N[C@H](C(=O)N[C@@H](CC(C)C)C(=O)N[C@@H](CC(N)=O)C(=O)N[C@@H](CCCNC(=N)N)C(=O)N[C@@H](CCC(N)=O)C(=O)N[C@@H](CCC(N)=O)C(=O)NCC(N)=O)[C@@H](C)CC)C(C)C)[C@@H](C)O [Compound 2, Cya^3,25, Leu²⁷bGRF(1-32)NH₂] (H-YA[Cya]AIFTNSYRKVLGQLSARKLLQ[Cya]ILNRQQG-NH2) | – | 0.11 | – | – |

Continued, in another order:

| remaining at 1 h [1] | Compound | the potency of bGRF(1-44)NH₂ [2] | the potency of bGRF(1-44)NH₂ [2, 3] | potency (in words) ([2]; contemplated, compound not tested) |
| --- | --- | --- | --- | --- |
| 67% | CC[C@H](C)[C@H](NC(=O)[C@H](C)NC(=O)[C@H](CS(=O)(=O)O)NC(=O)[C@H](C)NC(=O)CCc1ccc(O)cc1)C(=O)N[C@@H](Cc1ccccc1)C(=O)N[C@H](C(=O)N[C@@H](CO)C(=O)N[C@@H](CO)C(=O)N[C@@H](Cc1ccc(O)cc1)C(=O)N[C@@H](CCCNC(=N)N)C(=O)N[C@@H](CCCNC(=N)N)C(=O)N[C@H](C(=O)N[C@@H](CC(C)C)C(=O)N[C@@H](C)C(=O)N[C@@H](CCC(N)=O)C(=O)N[C@@H](CC(C)C)C(=O)N[C@@H](CO)C(=O)N[C@@H](C)C(=O)N[C@@H](CCCNC(=N)N)C(=O)N[C@@H](CCCNC(=N)N)C(=O)N[C@@H](CC(C)C)C(=O)N[C@@H](CC(C)C)C(=O)N[C@@H](CCC(N)=O)C(=O)N[C@@H](CC(=O)O)C(=O)N[C@H](C(=O)N[C@@H](CC(C)C)C(=O)N[C@@H](CO)C(=O)N[C@@H](CCCNC(=N)N)C(=O)N[C@@H](CCC(N)=O)C(=O)N[C@@H](CCC(N)=O)C(=O)NCC(N)=O)[C@@H](C)CC)C(C)C)[C@@H](C)O [Compound 12, DesaminoTyr¹, Cya³, Ser⁸, Arg¹², Ala¹⁵, Leu²⁷, Ser²⁸, bGRF(1-32)NH₂] (Desaminotyrosyl-A[Cya]AIFTSSYRRVLAQLSARRLLQDILSRQQG-NH2) | – | 0.54 | – |
| 51% | CC[C@H](C)[C@H](NC(=O)[C@H](C)NC(=O)[C@H](CS(=O)(=O)O)NC(=O)[C@@H](C)NC(=O)CCc1ccc(O)cc1)C(=O)N[C@@H](Cc1ccccc1)C(=O)N[C@H](C(=O)N[C@@H](CC(N)=O)C(=O)N[C@@H](CO)C(=O)N[C@@H](Cc1ccc(O)cc1)C(=O)N[C@@H](CCCNC(=N)N)C(=O)N[C@@H](CCCCN)C(=O)N[C@H](C(=O)N[C@@H](CC(C)C)C(=O)NCC(=O)N[C@@H](CCC(N)=O)C(=O)N[C@@H](CC(C)C)C(=O)N[C@@H](CO)C(=O)N[C@@H](C)C(=O)N[C@@H](CCCNC(=N)N)C(=O)N[C@@H](CCCCN)C(=O)N[C@@H](CC(C)C)C(=O)N[C@@H](CC(C)C)C(=O)N[C@@H](CCC(N)=O)C(=O)N[C@@H](CC(=O)O)C(=O)N[C@H](C(=O)N[C@@H](CC(C)C)C(=O)N[C@@H](CC(N)=O)C(=O)N[C@@H](CCCNC(=N)N)C(=O)N[C@@H](CCC(N)=O)C(=O)N[C@@H](CCC(N)=O)C(=O)NCC(N)=O)[C@@H](C)CC)C(C)C)[C@@H](C)O [Compound 6, Desamino-Tyr¹, D-Ala²,, Cya³, Leu²⁷-bGRF(1-32)NH₂] (Desaminotyrosyl-[dA][Cya]AIFTNSYRKVLGQLSARKLLQDILNRQQG-NH2) | 0.26 | – | – |
| 65% | CC[C@H](C)[C@H](NC(=O)[C@H](C)NC(=O)[C@H](CC(=O)O)NC(=O)[C@H](C)NC(=O)CCc1ccc(O)cc1)C(=O)N[C@@H](Cc1ccccc1)C(=O)N[C@H](C(=O)N[C@@H](CO)C(=O)N[C@@H](CO)C(=O)N[C@@H](Cc1ccc(O)cc1)C(=O)N[C@@H](CCCNC(=N)N)C(=O)N[C@@H](CCCNC(=N)N)C(=O)N[C@H](C(=O)N[C@@H](CC(C)C)C(=O)N[C@@H](C)C(=O)N[C@@H](CCC(N)=O)C(=O)N[C@@H](CC(C)C)C(=O)N[C@@H](CO)C(=O)N[C@@H](C)C(=O)N[C@@H](CCCNC(=N)N)C(=O)N[C@@H](CCCNC(=N)N)C(=O)N[C@@H](CC(C)C)C(=O)N[C@@H](CC(C)C)C(=O)N[C@@H](CCC(N)=O)C(=O)N[C@@H](CS(=O)(=O)O)C(=O)N[C@H](C(=O)N[C@@H](CC(C)C)C(=O)N[C@@H](CO)C(=O)N[C@@H](CCCNC(=N)N)C(=O)N[C@@H](CCC(N)=O)C(=O)N[C@@H](CCC(N)=O)C(=O)NCC(N)=O)[C@@H](C)CC)C(C)C)[C@@H](C)O [Compound 14, DesaminoTyr¹, Ser⁸, Arg¹², Ala¹⁵, Cya²⁵, Leu²⁷, Ser²⁸, bGRF(1-32)NH₂] (Desaminotyrosyl-ADAIFTSSYRRVLAQLSARRLLQ[Cya]ILSRQQG-NH2) | – | 1.21 | – |

From EP0326418A1, “GRF analogs” (THE UPJOHN COMPANY, priority 1988, dated 1989)
